Test systems include OVCAR-8; SNB-75; 786-0; HCC 2998; RPMI-8226; A549; NCI-H226; NCI-H23; HOP-92; MOLT-4; HT-29; HCT-116; SK-MEL-28; CCRF-CEM; EKVX; NCI-H460; HOP-62; COLO 205; SK-OV-3.
Assay in all cases: NCI-60 cell line screen, 48 h

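Exposure lasted 48 hours, with cells grown in 96-well plates and compounds tested at five concentrations. The concentration for 50% growth inhibition is given as GI50.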 Calls of active or inactive are those of the source. No stated cut-off is given here; in the data, active = GI50 up to about 1.1 µM and inactive = higher.

On to `CCc1cccc(C(C)CC)c1NC(=O)CC1C(=O)Nc2ccccc2[S+]1[O-]` (stereo not drawn), for which the GI50 is 95.7 µM (inactive) with OVCAR-8; 22.4 µM (inactive) with SNB-75; 37.4 µM (inactive) in the experiment with 786-0; > 100 µM (inactive) with HCC 2998; 31.3 µM (inactive) with RPMI-8226; 31.8 µM (inactive) with A549. The GI50 in the experiment with NCI-H226 was > 100 µM (inactive); in the experiment with NCI-H23 it was 58.2 µM (inactive); in the experiment with HOP-92 it was 16.7 µM (inactive); in the experiment with MOLT-4 it was 14.9 µM (inactive); in the experiment with HT-29, 23.1 µM (inactive); with HCT-116 it was 31.3 µM (inactive). Besides, the GI50 was 26.1 µM (inactive) with SK-MEL-28, 24.8 µM (inactive) in the experiment on CCRF-CEM, > 100 µM (inactive) with EKVX and 29.4 µM (inactive) in the experiment with NCI-H460.

On to `O=C(CNc1nncs1)NO`, for which the GI50 with OVCAR-8, with SNB-75, with 786-0, with HCC 2998, in the experiment on HOP-62 and with RPMI-8226 was > 100 µM (inactive) in each case. For the same molecule, the GI50 with COLO 205 was > 100 µM (inactive); in the experiment on A549 it was > 100 µM (inactive); in the experiment on NCI-H23, > 100 µM (inactive); in the experiment with HOP-92, 38.2 µM (inactive); with MOLT-4, > 100 µM (inactive); with SK-OV-3 it was > 100 µM (inactive). The GI50 with HT-29 was 84.3 µM (inactive); in the experiment on HCT-116 it was > 100 µM (inactive); in the experiment on SK-MEL-28 it was > 100 µM (inactive); in the experiment with CCRF-CEM, > 10 µM (inactive); with EKVX it was > 100 µM (inactive); in the experiment on NCI-H460, > 100 µM (inactive).

Regarding `Cc1c(C(=O)Nc2ccc(Cl)cc2)nc(N)nc1-c1cccc(Cl)c1`, the GI50 in the experiment on OVCAR-8 was > 100 µM (inactive); in the experiment on 786-0, > 100 µM (inactive); in the experiment on HCC 2998 it was 61.9 µM (inactive); with HOP-62, > 100 µM (inactive); in the experiment on COLO 205 it was 77.3 µM (inactive); in the experiment on A549, 74.5 µM (inactive). Besides, the GI50 in the experiment with NCI-H226 was > 100 µM (inactive); with NCI-H23, > 100 µM (inactive); with HOP-92, 28.4 µM (inactive); in the experiment on MOLT-4, > 100 µM (inactive); in the experiment with SK-OV-3, > 100 µM (inactive); in the experiment with HT-29, 36.7 µM (inactive). Besides, the GI50 is 57.3 µM (inactive) in the experiment on HCT-116; > 100 µM (inactive) in the experiment on SK-MEL-28; > 100 µM (inactive) in the experiment on CCRF-CEM; > 100 µM (inactive) in the experiment on EKVX; 66.2 µM (inactive) with NCI-H460.

On to `Cc1cc(O)nc(NNC(C#N)c2ccc([N+](=O)[O-])cc2)n1` (stereo not drawn), for which the GI50 with OVCAR-8 is > 100 µM (inactive); with SNB-75 it was 34.8 µM (inactive); in the experiment with 786-0, > 100 µM (inactive); in the experiment on HOP-62, > 100 µM (inactive); with RPMI-8226, > 100 µM (inactive); in the experiment with COLO 205, > 100 µM (inactive). The GI50 in the experiment on A549, in the experiment on NCI-H226, in the experiment on NCI-H23, in the experiment on HOP-92, in the experiment on MOLT-4 and in the experiment on SK-OV-3 was > 100 µM (inactive) in each case. The GI50 in the experiment with HT-29 was > 100 µM (inactive); with HCT-116, 80.4 µM (inactive); in the experiment on SK-MEL-28 it was > 100 µM (inactive); with CCRF-CEM, > 100 µM (inactive); in the experiment with NCI-H460 it was > 100 µM (inactive).

Turning to `COC[C@@H](/N=C/N1CCc2cc(OC)c(OC)cc2[C@@H]1C)C(C)(C)C`, the GI50 in the experiment on OVCAR-8, in the experiment with SNB-75, in the experiment with 786-0, in the experiment with HOP-62, in the experiment with RPMI-8226 and with COLO 205 was > 100 µM (inactive) in each case. The GI50 in the experiment on A549, in the experiment on NCI-H226, in the experiment with NCI-H23, with HOP-92, in the experiment with MOLT-4 and in the experiment with SK-OV-3 was > 100 µM (inactive) each time. The GI50 in the experiment with HT-29 is 79.8 µM (inactive); in the experiment with HCT-116 it was > 100 µM (inactive); in the experiment on SK-MEL-28 it was > 100 µM (inactive); in the experiment on CCRF-CEM, > 100 µM (inactive); in the experiment on EKVX, > 100 µM (inactive); in the experiment with NCI-H460, > 100 µM (inactive).

For `COc1ccc2c(c1)[n+]([O-])c(-c1ccc([N+](=O)[O-])cc1)c(N)[n+]2[O-]`, the GI50 in the experiment with OVCAR-8 was > 100 µM (inactive); with SNB-75, > 100 µM (inactive); in the experiment on 786-0, > 100 µM (inactive); in the experiment with HOP-62 it was > 100 µM (inactive); in the experiment on COLO 205, 47.4 µM (inactive); with A549, 70.8 µM (inactive). The GI50 in the experiment with NCI-H226 was > 100 µM (inactive); in the experiment on NCI-H23 it was 88.5 µM (inactive); with HOP-92, > 100 µM (inactive); in the experiment with MOLT-4, 22.3 µM (inactive); in the experiment with SK-OV-3, > 100 µM (inactive); with HT-29 it was 65.5 µM (inactive). Moreover, the GI50 was 26.6 µM (inactive) with HCT-116; 67 µM (inactive) with SK-MEL-28; 56.5 µM (inactive) in the experiment with CCRF-CEM; > 100 µM (inactive) in the experiment with EKVX; 49.5 µM (inactive) with NCI-H460.

For `Nc1c(Cl)ncnc1NCCCCCCCCCCCCNc1ncnc(Cl)c1N`, the GI50 in the experiment on OVCAR-8 is 1.9 µM (inactive); with SNB-75 it was 1.28 µM (inactive); with 786-0, 2.86 µM (inactive); in the experiment on HCC 2998, 3.72 µM (inactive); in the experiment on HOP-62, 0.254 µM (active); in the experiment with RPMI-8226 it was 1.5 µM (inactive). The GI50 in the experiment with COLO 205 is 8.24 µM (inactive); with A549 it was 2.07 µM (inactive); in the experiment on NCI-H23, < 0.01 µM (active); in the experiment with HOP-92, 1.32 µM (inactive); in the experiment on MOLT-4 it was 0.167 µM (active); in the experiment with SK-OV-3, 4.18 µM (inactive). Moreover, the GI50 is 7.03 µM (inactive) in the experiment with HT-29; 0.0469 µM (active) in the experiment with HCT-116; 2.14 µM (inactive) with SK-MEL-28; 0.162 µM (active) in the experiment with CCRF-CEM; 3.44 µM (inactive) with EKVX; 1.9 µM (inactive) with NCI-H460.

For the molecule `CC(=O)OCC(OC(C)=O)C(OC(C)=O)C(OC(C)=O)C(=O)CNn1c(-c2ccccc2Cl)nc2ccc(Br)cc2c1=O` (stereo not drawn), the GI50 in the experiment with OVCAR-8 is 76.9 µM (inactive); in the experiment on SNB-75, 59.8 µM (inactive); in the experiment with 786-0, > 100 µM (inactive); with HOP-62, > 100 µM (inactive); with RPMI-8226, 27 µM (inactive); with COLO 205 it was > 100 µM (inactive). Also, the GI50 with A549 was > 100 µM (inactive); with NCI-H23 it was > 100 µM (inactive); in the experiment on MOLT-4 it was 34.6 µM (inactive); with SK-OV-3, > 100 µM (inactive); in the experiment on HT-29, 96.4 µM (inactive); in the experiment with HCT-116 it was > 100 µM (inactive). Further, the GI50 with SK-MEL-28 was > 100 µM (inactive); with CCRF-CEM, 42.5 µM (inactive); with EKVX it was > 100 µM (inactive); with NCI-H460 it was > 100 µM (inactive).

On to `CCN(CC)CCNC(=O)c1ccccc1Nc1c(Cl)cccc1Cl`, for which the GI50 in the experiment with OVCAR-8 was 16.4 µM (inactive); in the experiment with SNB-75, 11.2 µM (inactive); with 786-0 it was 6.34 µM (inactive); with HCC 2998 it was 6.82 µM (inactive); in the experiment with HOP-62 it was 11.3 µM (inactive); in the experiment with RPMI-8226, 12.2 µM (inactive). Besides, the GI50 is 12.9 µM (inactive) in the experiment on COLO 205; 17 µM (inactive) in the experiment with A549; 17.8 µM (inactive) in the experiment on NCI-H226; 18.2 µM (inactive) in the experiment on NCI-H23; 13.1 µM (inactive) in the experiment with MOLT-4; 16.7 µM (inactive) with SK-OV-3. Further, the GI50 was 6.15 µM (inactive) in the experiment with HT-29; 12.8 µM (inactive) in the experiment with HCT-116; 18.3 µM (inactive) in the experiment on SK-MEL-28; 14.1 µM (inactive) in the experiment on CCRF-CEM; 12.7 µM (inactive) with EKVX; 4.39 µM (inactive) in the experiment on NCI-H460.

As to `CC1C(=O)CCC1C(Sc1ccccc1)(Sc1ccccc1)Sc1ccccc1` (stereo not drawn), the GI50 with OVCAR-8 is 24.3 µM (inactive); in the experiment on SNB-75, 17.1 µM (inactive); in the experiment with 786-0 it was 22.5 µM (inactive); in the experiment on HCC 2998, 20.8 µM (inactive); with HOP-62, 37.4 µM (inactive); with RPMI-8226, 12.6 µM (inactive). Further, the GI50 in the experiment on COLO 205 is 38.2 µM (inactive); in the experiment with A549, 9.27 µM (inactive); in the experiment on NCI-H23 it was 22.5 µM (inactive); in the experiment on HOP-92, 8.43 µM (inactive); in the experiment on MOLT-4, 4.73 µM (inactive); in the experiment with SK-OV-3, 80.2 µM (inactive). In addition, the GI50 with HT-29 is 30.3 µM (inactive); with HCT-116, 16.1 µM (inactive); in the experiment with SK-MEL-28, 22.1 µM (inactive); in the experiment on CCRF-CEM, 3.48 µM (inactive); in the experiment on EKVX, 55.6 µM (inactive); in the experiment on NCI-H460, 41.4 µM (inactive).

On to `O=C(NC1CCC[C@H]1OC(=O)c1ccccc1)c1ccccc1` (stereo partly drawn), for which the GI50 in the experiment on OVCAR-8 is > 100 µM (inactive); with SNB-75, 10.7 µM (inactive); in the experiment with 786-0, > 100 µM (inactive); in the experiment on A549, 40.4 µM (inactive); with NCI-H226 it was 13.7 µM (inactive); with NCI-H23, 31 µM (inactive). For the same molecule, the GI50 is 25.6 µM (inactive) in the experiment with HOP-92; 30.1 µM (inactive) in the experiment with MOLT-4; 43.2 µM (inactive) in the experiment with SK-OV-3; 39.7 µM (inactive) with HT-29; 81.3 µM (inactive) with HCT-116; > 100 µM (inactive) with SK-MEL-28. The GI50 with CCRF-CEM, in the experiment on EKVX and with NCI-H460 was > 100 µM (inactive) each time.

Turning to `Nc1ccccc1S(=O)(=O)N(CC(=O)O)c1ccccc1`, the GI50 with OVCAR-8, in the experiment with SNB-75, in the experiment on 786-0, in the experiment with RPMI-8226, in the experiment with COLO 205 and in the experiment with A549 was > 100 µM (inactive) each time. In addition, the GI50 in the experiment with NCI-H23, in the experiment on HOP-92, in the experiment with MOLT-4, with SK-OV-3, in the experiment on HT-29 and in the experiment on SK-MEL-28 was > 100 µM (inactive) in each case. Besides, the GI50 with CCRF-CEM, with EKVX and in the experiment with NCI-H460 was > 100 µM (inactive) in each case.

For the origin of these results see ChEMBL document CHEMBL1201862, “PubChem BioAssay data set” (2004).
